Consider 18 compounds from patent US20240400554A1, “MONOACYLGLYCEROL LIPASE (MAGL) INHIBITORS FOR THE TREATMENT OF PAIN AND RELATED MEDICAL DISORDERS” (Humanwell Pharmaceutical US, Inc., priority 2023, published 2024).

In assay [1] the test system is 2% formalin model in SD rats. The experiment in a line: Formalin-induced pain model. It counts as in vivo. Conditions: 3 mg/kg p.o.; for inhibition in vivo at 3 mg/kg: Rattus norvegicus, po, 1 h, movements (lifts and licks) 0-60 min after formalin, read-out: MPE % (Maximum Possible Effect). As to the method: A diluted formalin solution is injected subcutaneously into the hind paw of rats using a microsyringe, creating a continuous noxious stimulus that induces spontaneous pain behaviors in the animals. The experiment can record the number of lifts and licks of the rat's foot through an autonomous movement analyzer to assess the degree of pain. This experiment uses a 2% formalin model in SD rats and tests the analgesic activity of compounds by oral administration. After injecting 2% formalin, the number of movements (lifts and licks of the injected foot) from 0-60 min after injecting the formalin solution is recorded and analyzed.
The Maximum Possible Effect (MPE %) is calculated as a percentage:
Note: (1) MPE % for each group is calculated with sham group MPE=100% and vehicle group MPE=0% as standards. (2) Movement counts of the sham group are subtracted to exclude the impact of background noise on the experiment. (2) “Sham” represents the average value of the sham group; “Vehicle-Sham” represents the average value of the vehicle group minus the sham group.
Results are presented as mean values with standard error. Data from each group are analyzed and graphed using GraphPad Prism 8 software. Statistical analysis is conducted using one-way ANOVA to determine statistical differences between groups, with t-tests used for comparisons between two groups. A p-value <0.05 is considered statistically significant.

Assay [2] concerns the target T1, human recombinant MAGL (monoacylglycerol lipase) (Homo sapiens, UniProt Q99685).
T1 construct: purchased Cayman Chemical Item No. 705192
T1 sequence (Q99685 1-303): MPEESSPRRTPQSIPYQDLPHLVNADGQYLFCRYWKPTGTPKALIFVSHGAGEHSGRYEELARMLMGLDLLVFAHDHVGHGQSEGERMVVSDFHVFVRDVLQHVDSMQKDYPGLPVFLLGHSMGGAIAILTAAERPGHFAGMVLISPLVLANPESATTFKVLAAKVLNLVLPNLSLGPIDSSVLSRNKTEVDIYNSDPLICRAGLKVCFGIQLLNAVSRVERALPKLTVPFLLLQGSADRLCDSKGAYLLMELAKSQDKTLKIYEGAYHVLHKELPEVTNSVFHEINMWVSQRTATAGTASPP
The experiment in a line: In vitro MAGL enzyme inhibition assay (Cayman Monoacylglycerol Lipase Inhibitor Screening Assay, 4-nitrophenylacetate hydrolysis). The format is biochemical. Conditions: 4-nitrophenylacetate substrate, 15 min preincubation, absorbance 405-415 nm. As to the method: Monoacylglycerol Lipase Inhibitor Screening Assay provides a convenient method for screening human MAGL inhibitors.
Dilute 3 ml of MAGL Assay Buffer (10×) concentrate with 27 ml of ultrapure water. This final 1× Assay Buffer (10 mM Tris-HCl, pH 7.2, containing 1 mM EDTA) should be used in the assay and for the dilution of MAGL enzyme, substrate, and MAGL inhibitor. The 1× Assay Buffer is stable for at least six months if stored at −20° C.
The vial contains 0.5 ml of 17 mM ethanolic solution of 4-nitrophenylacetate. Mix 150 μL of this solution with 450 μl of 1× Assay Buffer prior to testing. This is enough substrate to assay 50 wells. Dilute additional substrate if using the entire plate.
This vial contains 100 μl of a solution of human recombinant MAGL (monoacylglycerol lipase). The thawed enzyme should be stored on ice. Dilute 30 μl of enzyme with 570 μl of 1×MAGL Assay Buffer. This is enough enzyme to assay 50 wells. Dilute additional enzyme if using the entire plate. The diluted enzyme is stable for four hours on ice.
This vial contains 20 nmol of inhibitor. Resuspend in 125 μl of DMSO, then add 125 μl of 1× Assay Buffer and vortex to make an 80 μM stock.
1). 100% Initial Activity Wells—add 150 μl of 1× Assay Buffer, 10 μl of MAGL enzyme, and 10 μl of solvent (same solvent used to dissolve the inhibitor) to three wells.
2). Background Wells—add 160 μl of 1× Assay Buffer and 10 μl of solvent (same solvent used to dissolve the inhibitor) to three wells.
3). Inhibitor/Positive Control Wells—add 150 μl of 1× Assay Buffer, 10 μl of MAGL enzyme, and 10 μl of inhibitor* or positive control inhibitor to the inhibitor wells.
4). Mix the contents of the wells by pipetting gently up and down and incubate for 15 minutes at room temperature. The incubation time for different inhibitors may vary and will need to be optimized by the user.
5). Initiate the reactions by adding 10 μl of MAGL Substrate to all the wells being used. Carefully shake the 96-well plate for 10 seconds to mix and cover with the plate cover. Incubate for ten minutes at room temperature.
6). […] (Tecan Spark 10M Multimode Plate Reader)
1). Determine the average absorbance of each sample.
2). Subtract the average absorbance of the background wells from the average absorbance of the 100% initial activity and the inhibitor wells.
3). Determine the percent inhibition or percent activity for each inhibitor using one of the following equations: […]

A value given as a limit tells only on which side of the number the result lay.

For the compound `O=C(OC(C(F)(F)F)C(F)(F)F)N1CCC(c2nc3n(n2)-c2ccc(F)cc2CC3)CC1` [Compound 24, 1,1,1,3,3,3-hexafluoropropan-2-yl 4-(7-fluoro-4,5-dihydro-[1,2,4]triazolo[1,5-a]quinolin-2-yl)piperidine-1-carboxylate], in assay [1], the “Experimental Results (analgesic activity in the formalin model)” value (“Experimental Results” below) is reported as “effective” and the inhibition in vivo at 3 mg/kg came to 50%. The term IC50 denotes the concentration that gives 50% inhibition. In the case of `O=C(OC(CO)C(F)(F)F)N1CCC(c2cn3c(n2)CCc2cc(F)ccc2-3)CC1` (stereo not drawn) [Compound 26, 1,1,1-trifluoro-3-hydroxypropan-2-yl 4-(7-fluoro-4,5-dihydroimidazo[1,2-a]quinolin-2-yl)piperidine-1-carboxylate], the half-inhibitory concentration (IC50) in assay [2] was 83.4 nM.

On to `CC(C)c1c(C2CCN(C(=O)OC(C(F)(F)F)C(F)(F)F)CC2)nn2c1CCc1cc(F)cnc1-2` [Compound 21, 1,1,1,3,3,3-hexafluoropropan-2-yl 4-(7-fluoro-3-isopropyl-4,5-dihydropyrazolo[1,5-a][1,8]naphthyridin-2-yl)piperidine-1-carboxylate], for which the IC50 in assay [2] came out at 152 nM. For the compound `O=C(OC(C(F)(F)F)C(F)(F)F)N1CCC(c2cc3n(n2)-c2ncc(F)cc2CC3)CC1` [Compound 13, 1,1,1,3,3,3-hexafluoropropan-2-yl 4-(7-fluoro-4,5-dihydropyrazolo[1,5-a][1,8]naphthyridin-2-yl)piperidine-1-carboxylate], in assay [1], the “Experimental Results” value is reported as “effective” and the inhibition in vivo at 3 mg/kg stood at 49%. In addition, the IC50 in assay [2] was 9.1 nM. As for `Cc1c(C2CCN(C(=O)OC(C(F)(F)F)C(F)(F)F)CC2)nn2c1CCc1cc(F)cnc1-2` [Compound 17, 1,1,1,3,3,3-hexafluoropropan-2-yl 4-(7-fluoro-3-methyl-4,5-dihydropyrazolo[1,5-a][1,8]naphthyridin-2-yl)piperidine-1-carboxylate], the IC50 in assay [2] is 126 nM.

As for `N#Cc1c(C2CCN(C(=O)OC(C(F)(F)F)C(F)(F)F)CC2)nn2c1CCc1cc(F)cnc1-2` [Compound 18, 1,1,1,3,3,3-hexafluoropropan-2-yl 4-(3-cyano-7-fluoro-4,5-dihydropyrazolo[1,5-a][1,8]naphthyridin-2-yl)piperidine-1-carboxylate], the IC50 in assay [2] turned out to be 78.3 nM. Consider `O=C(OC(CO)C(F)(F)F)N1CCC(c2nn3c(c2F)CCc2cc(F)ccc2-3)CC1` (stereo not drawn) [Compound 3, 1,1,1-trifluoro-3-hydroxypropan-2-yl 4-(3,7-difluoro-4,5-dihydropyrazolo[1,5-a]quinolin-2-yl)piperidine-1-carboxylate], for which, in assay [1], the “Experimental Results” value was “effective” and the inhibition in vivo at 3 mg/kg is 61%.

Consider `O=C(OC(CO)C(F)(F)F)N1CCC(c2nn3c(c2C2CC2)CCc2cc(F)ccc2-3)CC1` (stereo not drawn) [Compound 40, 1,1,1-trifluoro-3-hydroxypropan-2-yl 4-(3-cyclopropyl-7-fluoro-4,5-dihydropyrazolo[1,5-a]quinolin-2-yl)piperidine-1-carboxylate], for which, in assay [1], the “Experimental Results” value is reported as “effective” and the inhibition in vivo at 3 mg/kg was determined as 41%. Also, the IC50 in assay [2] is 18.8 nM. Taken in the same sequence, the figures for `O=C(OC(C(F)(F)F)C(F)(F)F)N1CCC(c2cc3n(n2)-c2ccc(F)cc2CC3)CC1` [Compound 1, 1,1,1,3,3,3-hexafluoropropan-2-yl 4-(7-fluoro-4,5-dihydropyrazolo[1,5-a]quinolin-2-yl)piperidine-1-carboxylate] were “effective”, 68% and less than 0.1 nM. Regarding `CC(C)c1c(C2CCN(C(=O)OC(C(F)(F)F)C(F)(F)F)CC2)nn2c1ccc1cc(F)cnc12` [Compound 34, 1,1,1,3,3,3-hexafluoropropan-2-yl 4-(7-fluoro-3-isopropylpyrazolo[1,5-a][1,8]naphthyridin-2-yl)piperidine-1-carboxylate], the IC50 in assay [2] was 12.5 nM. For the compound `O=C(OC(CO)C(F)(F)F)N1CCC(c2nc3n(c2Br)-c2ncc(F)cc2CC3)CC1` (stereo not drawn) [Compound 31, 1,1,1-trifluoro-3-hydroxypropan-2-yl 4-(9-bromo-3-fluoro-5,6-dihydroimidazo[1,2-a][1,8]naphthyridin-8-yl)piperidine-1-carboxylate], in assay [2], the IC50 was found to be 32.7 nM. For `Cc1c(C2CCN(C(=O)OC(CO)C(F)(F)F)CC2)nn2c1CCc1cc(F)ccc1-2` (stereo not drawn) [Compound 6, 1,1,1-trifluoro-3-hydroxypropan-2-yl 4-(7-fluoro-3-methyl-4,5-dihydropyrazolo[1,5-a]quinolin-2-yl)piperidine-1-carboxylate], in assay [1], the “Experimental Results” value was “effective” and the inhibition in vivo at 3 mg/kg was 44%. Moreover, the IC50 in assay [2] amounted to 16.7 nM. On to `O=C(OC(CO)C(F)(F)F)N1CCC(c2nn3c(c2Br)CCc2cc(F)ccc2-3)CC1` (stereo not drawn) [Compound 5, 1,1,1-trifluoro-3-hydroxypropan-2-yl 4-(3-bromo-7-fluoro-4,5-dihydropyrazolo[1,5-a]quinolin-2-yl)piperidine-1-carboxylate], for which, in assay [1], the “Experimental Results” value is “effective” and the inhibition in vivo at 3 mg/kg came to 44%. In addition, the IC50 in assay [2] came out at 37.1 nM.

For the compound `O=C(OC(CO)C(F)(F)F)N1CC2C(C1)C2c1cc2n(n1)-c1ccc(F)cc1CC2` (stereo not drawn) [Compound 12, 1,1,1-trifluoro-3-hydroxypropan-2-yl 6-(7-fluoro-4,5-dihydropyrazolo[1,5-a]quinolin-2-yl)-3-azabicyclo[3.1.0]hexane-3-carboxylate], in assay [1], the “Experimental Results” value is “effective” and the inhibition in vivo at 3 mg/kg was 64%. As to `O=C(OC(C(F)(F)F)C(F)(F)F)N1CCN(c2cc3n(n2)-c2ccc(F)cc2CC3)CC1` [Compound 35, 1,1,1,3,3,3-hexafluoropropan-2-yl 4-(7-fluoro-4,5-dihydropyrazolo[1,5-a]quinolin-2-yl)piperazine-1-carboxylate], in assay [2], the concentration for half-maximal inhibition (IC50) came out at 13.1 nM. Same read-out and setting: to `O=C(OC(CO)C(F)(F)F)N1CCC(c2nc3n(c2Br)-c2ccc(F)cc2CC3)CC1` (stereo not drawn) [Compound 28, 1,1,1-trifluoro-3-hydroxypropan-2-yl 4-(1-bromo-7-fluoro-4,5-dihydroimidazo[1,2-a]quinolin-2-yl)piperidine-1-carboxylate] belongs 25.1 nM. For `O=C(OC(C(F)(F)F)C(F)(F)F)N1CCN(Cc2ccc(C(F)(F)F)cc2N2CCCC2)CC1` [ABX-1431, reference compound], in assay [1], the “Experimental Results” value is reported as “effective” and the inhibition in vivo at 3 mg/kg amounted to 33%.

For `O=C(OC(CO)C(F)(F)F)N1CCC(c2nn3c(c2Cl)CCc2cc(F)ccc2-3)CC1` (stereo not drawn) [Compound 4, 1,1,1-trifluoro-3-hydroxypropan-2-yl 4-(3-chloro-7-fluoro-4,5-dihydropyrazolo[1,5-a]quinolin-2-yl)piperidine-1-carboxylate], in assay [1], the “Experimental Results” value is given as “effective” and the inhibition in vivo at 3 mg/kg was found to be 51%.
